Calls of active or inactive are those of the source. No cut-off for these calls is given here.
Legend:
[1] = Octanol-PBS buffer partition coefficient, log D of the compound at pH 7.4 by HPLC method
[2] = Fraction unbound in rat plasma at 5 uM after 4 hrs by equilibrium dialysis method
[3] = Fraction unbound in mouse plasma at 5 uM after 4 hrs by equilibrium dialysis method
Rattus norvegicus [4] = assay: Unbound clearance in Sprague-Dawley rat at 1 mg/kg, iv administered as single dose by LC-MS/MS analysis; assay type: ADME, organism-based; conditions: in vivo
[5] = Half life in Sprague-Dawley rat at 1 mg/kg, iv administered as single dose by LC-MS/MS analysis; assay type: ADME, organism-based; conditions: in vivo
[6] = Oral bioavailability in Sprague-Dawley rat at 3 mg/kg administered via gavage as single dose by LC-MS/MS analysis; assay type: ADME, organism-based; conditions: in vivo
Rattus norvegicus [7] = assay: Dose normalized unbound AUC in Sprague-Dawley rat at 3 mg/kg, po administered via gavage as single dose by LC-MS/MS analysis; assay type: ADME, organism-based; conditions: in vivo
Mus musculus [8] = assay: Dose normalized unbound AUC in C57Bl/6J mouse at 50 mg/kg, po administered via gavage as single dose by LC-MS/MS analysis; assay type: ADME, organism-based; conditions: in vivo
Mus musculus [9] = assay: Antidiabetic activity in C57Bl/6J mouse assessed as inhibition of blood glucose AUC (0 to 120 mins) at 50 mg/kg, po treated prior to glucose challenge by OGTT relative to control; assay type: functional
Mus musculus [10] = assay: Antidiabetic activity in FFA2R knock-out C57Bl/6J mouse assessed as inhibition of blood glucose AUC (0 to 120 mins) at […], po treated prior to glucose challenge by OGTT; assay type: functional, organism-based
[11] = target: Free fatty acid receptor 1 (Homo sapiens) (UniProt O14842); assay: Antagonist activity at FFA1R (unknown origin) at 10 uM by aequorin based assay relative to control; assay type: functional
Chain of Free fatty acid receptor 1 (Homo sapiens) (O14842 whole entry): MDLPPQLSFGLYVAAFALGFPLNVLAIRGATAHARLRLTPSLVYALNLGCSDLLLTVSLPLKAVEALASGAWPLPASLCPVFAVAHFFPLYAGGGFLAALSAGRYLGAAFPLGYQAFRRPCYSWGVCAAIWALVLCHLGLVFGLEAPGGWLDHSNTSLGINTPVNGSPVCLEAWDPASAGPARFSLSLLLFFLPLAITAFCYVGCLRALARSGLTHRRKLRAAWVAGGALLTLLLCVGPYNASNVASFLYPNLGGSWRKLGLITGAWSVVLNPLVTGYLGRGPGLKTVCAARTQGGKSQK

[12] = target: T1, Glucose-dependent insulinotropic receptor (Homo sapiens) (UniProt Q8TDV5); assay: Agonist activity at GPR119 (unknown origin) at 10 uM by cAMP accumulation based assay relative to control; assay type: functional
T1 sequence (whole entry): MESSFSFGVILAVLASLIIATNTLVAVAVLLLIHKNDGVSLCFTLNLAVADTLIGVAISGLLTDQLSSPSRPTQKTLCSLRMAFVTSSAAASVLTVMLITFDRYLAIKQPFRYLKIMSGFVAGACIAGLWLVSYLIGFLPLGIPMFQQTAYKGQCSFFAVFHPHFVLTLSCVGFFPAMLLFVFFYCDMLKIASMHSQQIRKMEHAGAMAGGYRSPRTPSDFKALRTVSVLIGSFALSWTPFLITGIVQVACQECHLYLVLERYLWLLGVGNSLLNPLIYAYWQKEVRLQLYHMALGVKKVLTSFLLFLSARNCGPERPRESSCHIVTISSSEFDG

[13] = target: T1, Glucose-dependent insulinotropic receptor (Homo sapiens); assay: Antagonist activity at GPR119 (unknown origin) at 10 uM by cAMP accumulation based assay relative to control; assay type: functional
[14] = target: Hydroxycarboxylic acid receptor 2 (Homo sapiens) (UniProt Q8TDS4); assay: Agonist activity at GPR109a (unknown origin) at 10 uM by aequorin based assay relative to control; assay type: functional
Chain of Hydroxycarboxylic acid receptor 2 (Homo sapiens) (Q8TDS4 whole entry): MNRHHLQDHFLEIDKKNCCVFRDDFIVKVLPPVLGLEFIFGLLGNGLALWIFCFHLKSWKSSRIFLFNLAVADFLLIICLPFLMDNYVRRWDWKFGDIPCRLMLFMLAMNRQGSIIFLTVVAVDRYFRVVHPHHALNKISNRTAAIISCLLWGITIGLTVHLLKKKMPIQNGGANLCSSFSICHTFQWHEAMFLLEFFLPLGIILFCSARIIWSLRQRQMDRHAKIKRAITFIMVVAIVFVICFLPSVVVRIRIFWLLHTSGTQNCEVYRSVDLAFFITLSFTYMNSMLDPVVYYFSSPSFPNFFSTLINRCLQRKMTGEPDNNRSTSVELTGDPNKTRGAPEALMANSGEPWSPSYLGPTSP

[15] = target: Hydroxycarboxylic acid receptor 2 (Homo sapiens) (UniProt Q8TDS4); assay: Antagonist activity at GPR109a (unknown origin) at 10 uM by aequorin based assay relative to control; assay type: functional
[16] = target: Hydroxycarboxylic acid receptor 3 (Homo sapiens) (UniProt P49019); assay: Antagonist activity at GPR109b (unknown origin) at 10 uM by aequorin based assay relative to control; assay type: functional
Chain of Hydroxycarboxylic acid receptor 3 (Homo sapiens) (P49019 whole entry): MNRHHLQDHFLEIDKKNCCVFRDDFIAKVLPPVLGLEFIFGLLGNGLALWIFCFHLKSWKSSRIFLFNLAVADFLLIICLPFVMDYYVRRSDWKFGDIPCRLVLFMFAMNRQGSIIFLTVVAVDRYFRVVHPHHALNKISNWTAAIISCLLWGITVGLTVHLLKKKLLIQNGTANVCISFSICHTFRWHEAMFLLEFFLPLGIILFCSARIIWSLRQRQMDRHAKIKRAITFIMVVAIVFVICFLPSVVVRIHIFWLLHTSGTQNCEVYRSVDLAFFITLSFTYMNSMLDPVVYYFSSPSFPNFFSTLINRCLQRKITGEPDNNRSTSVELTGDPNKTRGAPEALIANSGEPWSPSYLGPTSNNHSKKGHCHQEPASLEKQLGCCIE

[17] = target: T2, Free fatty acid receptor 3 (Homo sapiens) (UniProt O14843); conditions: 10 uM
T2 sequence (whole entry): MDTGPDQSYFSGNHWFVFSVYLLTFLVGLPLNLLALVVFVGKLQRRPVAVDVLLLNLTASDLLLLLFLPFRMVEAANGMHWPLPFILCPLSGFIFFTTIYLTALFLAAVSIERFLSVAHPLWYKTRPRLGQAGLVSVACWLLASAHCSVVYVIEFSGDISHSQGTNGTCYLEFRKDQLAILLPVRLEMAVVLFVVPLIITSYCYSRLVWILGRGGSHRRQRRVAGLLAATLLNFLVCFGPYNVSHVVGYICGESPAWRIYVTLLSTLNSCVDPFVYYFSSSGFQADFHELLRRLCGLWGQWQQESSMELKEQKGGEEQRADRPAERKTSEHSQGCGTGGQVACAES

[18] = target: T3, Glucagon-like peptide 2 receptor (Homo sapiens) (UniProt O95838); conditions: 10 uM
T3 sequence (whole entry): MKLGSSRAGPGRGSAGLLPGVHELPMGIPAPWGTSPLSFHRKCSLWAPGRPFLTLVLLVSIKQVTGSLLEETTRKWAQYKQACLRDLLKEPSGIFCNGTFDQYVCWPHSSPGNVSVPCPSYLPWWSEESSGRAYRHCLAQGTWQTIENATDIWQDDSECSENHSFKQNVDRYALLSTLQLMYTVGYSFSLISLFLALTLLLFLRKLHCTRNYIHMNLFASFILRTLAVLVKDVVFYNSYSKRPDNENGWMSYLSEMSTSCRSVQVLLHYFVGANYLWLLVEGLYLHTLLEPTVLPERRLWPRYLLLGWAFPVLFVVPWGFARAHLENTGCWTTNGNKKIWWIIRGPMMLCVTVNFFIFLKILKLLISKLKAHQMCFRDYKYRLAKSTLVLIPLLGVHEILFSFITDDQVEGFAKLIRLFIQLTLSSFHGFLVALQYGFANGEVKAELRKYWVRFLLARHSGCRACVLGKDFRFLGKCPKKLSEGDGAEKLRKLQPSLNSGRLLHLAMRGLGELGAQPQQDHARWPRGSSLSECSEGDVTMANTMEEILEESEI
Description: Antagonist activity at GLP2R (unknown origin) at 10 uM by cAMP accumulation based assay relative to control

[19] = target: T4, Gastric inhibitory polypeptide receptor (Homo sapiens) (UniProt P48546); conditions: 10 uM
T4 sequence (whole entry): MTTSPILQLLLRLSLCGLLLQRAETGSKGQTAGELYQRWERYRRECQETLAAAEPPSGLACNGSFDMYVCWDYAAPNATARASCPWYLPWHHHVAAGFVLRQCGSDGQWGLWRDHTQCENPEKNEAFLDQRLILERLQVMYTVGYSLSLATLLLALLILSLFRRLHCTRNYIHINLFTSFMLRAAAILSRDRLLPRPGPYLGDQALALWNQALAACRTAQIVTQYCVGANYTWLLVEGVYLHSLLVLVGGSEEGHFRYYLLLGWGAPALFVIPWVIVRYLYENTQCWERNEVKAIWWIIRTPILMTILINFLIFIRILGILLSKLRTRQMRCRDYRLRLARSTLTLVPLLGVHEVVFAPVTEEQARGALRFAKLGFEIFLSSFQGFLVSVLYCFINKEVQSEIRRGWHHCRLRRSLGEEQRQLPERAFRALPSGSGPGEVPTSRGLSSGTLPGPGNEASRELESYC
Description: Antagonist activity at GIPR (unknown origin) at 10 uM by cAMP accumulation based assay relative to control

COc1ccc(-c2ccccc2-c2csc(N(C(=O)[C@@H](CC(=O)O)CC3CCCC3)C3CC3)n2)cn1
logD [1]: 2.6
fraction unbound at 4 h, 5 µM [2]: 0.0006
fraction unbound at 4 h, 5 µM [3]: 0.0023
CL free (Rattus norvegicus [4]): 2617 mL/min/kg
half-life [5]: 4 h
bioavailability [6]: 47%
fAUC/dose (Rattus norvegicus [7]): 0.29 µM·min
fAUC/dose (Mus musculus [8]): 2.1 µM·min
inhibition in vivo at 50 mg/kg (Mus musculus [9]): 33%
inhibition (Mus musculus [10]): Active
inhibition [11]: 13%
Activity [12]: < 10%
inhibition [13]: < 10%
Activity [14]: < 10%
inhibition [15]: < 10%
inhibition [16]: 22%
inhibition [17]: < 10%
inhibition [18]: < 10%
inhibition [19]: < 10%
